Marks after values point to notes of the source that are not given here.
What was measured:
[1] = system: oocyte meiotic maturation; test: Kinase inhibitors in FGF2, LIF and IGF-1 supplemented medium, oocyte meiotic maturation; format: cell-based, porcine; conditions: PD173074 10 μM, JAK inhibitor I 6 μM, OSI-906 10 μM, PD0325901 10 μM
Source text: FIG. 6. Supplementation of FGF2, LIF and IGF-1 (FLI) regulates the changes of MAPK1/3 activation in cumulus cells (CCs) during IVM. […] Each CC sample was pooled from 50 cumulus oocyte complexes (COCs). This experiment was replicated four times. Asterisk denotes a significant difference between control and treatment, P<0.05. […] The experiments were replicated four times with 1208 oocytes. Different letters denote significant differences, P<0.05.

porcine oocytes = test: Porcine oocyte in vitro maturation (IVM) in cytokine-supplemented medium, then IVF and culture to blastocyst; format: cell-based; conditions: for efficiency of producing nuclear matured (MII) oocytes / oocyte developmental competence (ability of zygotes to form blastocysts after IVF): single cytokine in IVM medium; for efficiency of producing nuclear matured (MII) oocytes: 42 hr, versus control; for oocyte developmental competence (ability of zygotes to form blastocysts after IVF): 6 days culture
Method: The individual effects of FGF2, LIF, and IGF-1 on maturation of oocytes derived from pre-pubertal pre-pubertal gilts after commercial slaughter were examined after each had been added to an otherwise standard, chemically-defined medium comprised of TCM 199 supplemented with 10 ng/ml EGF, 0.5 μg/ml LH, 0.5 μg/ml FSH, 3.05 mM glucose, 0.91 mM sodium pyruvate, 0.57 mM cysteine, 10 ng/mL gentamicin, and 0.1% polyvinyl alcohol (PVA). After 42 hr in the oocyte maturation medium with the single cytokine addition, oocytes were in vitro fertilized and the resulting zygotes were cultured under standard in vitro culture conditions for 6 days. […] (FIG. 2). Optimal concentrations of FGF2 (40 ng/ml) and LIF (20 ng/ml) were added in combination to the standard IVM medium. The combination of FGF2 and LIF improved nuclear maturation beyond that achieved with the single factors in Example 1 (Table 1). […] The effects of adding the IGF-1 at the optimal concentration of 20 ng/ml in combination with the other two cytokines to the IVM medium was then examined. The combination of all three cytokines (FGF2, LIF, and IGF-1) increased oocyte nuclear maturation to 89%, as compared to 55% in controls (FIG. 5 and Table 2, column 4). After IVF, zygotes from oocytes cultured in medium comprising FGF2, LIF, and IGF-1 advanced to the blastocyst stage more efficiently than controls (49.7% versus 38%). […] Oocytes derived from medium comprising FGF2, LIF, and IGF-1 also provided improved production of blastocysts following somatic cell nuclear transfer (SCNT), which requires removal of nuclear material from the egg followed by fusion of the enucleated oocyte with a somatic donor cell (FIG. 5). [table]

[2] = Table 1, after IVF, means ± SEM
[3] = Table 1, porcine IVM medium, FGF2 40 ng/ml, LIF 20 ng/ml, means ± SEM
[4] = Table 2, IVF embryos cultured in MU1-PZM six days, means ± SEM

Compound	oocyte meiotic maturation [1]	efficiency of producing nuclear matured (MII) oocytes (porcine oocytes)	oocyte developmental competence (ability of zygotes to form blastocysts after IVF) (porcine oocytes)	also measured
JAK inhibitor I	more moderate declines	–	–	–
C[C@]1(O)C[C@@H](c2nc(-c3ccc4ccc(-c5ccccc5)nc4c3)c3c(N)nccn32)C1 [OSI-906]	more moderate declines	–	–	–
fibroblast growth factor 2 [FGF2]	–	improved	none of the cytokines improved	Blastocysts/Oocyte (%) (porcine oocytes; [2]): 25.6 ± 3.6^ab %; Blastocysts/Zygote (%) (porcine oocytes; [2]): 35.1 ± 4.9^a %; Nuclear Maturation (%) (porcine oocytes; [3]): 73.2 ± 3.4^a %
O=C(NOC[C@H](O)CO)c1ccc(F)c(F)c1Nc1ccc(I)cc1F [PD0325901]	almost complete block of meiotic maturation	–	–	–
CCN(CC)CCCCNc1ncc2cc(-c3cc(OC)cc(OC)c3)c(NC(=O)NC(C)(C)C)nc2n1 [PD173074]	more moderate declines	–	–	–
insulin-like growth factor 1 [IGF-1]	–	improved	none of the cytokines improved	Blastocysts/Oocyte (%) (porcine oocytes; [4]): 33.6 ± 5.5^b %; Blastocysts/Zygote (%) (porcine oocytes; [4]): 44.7 ± 6.7^ab %; Nuclear Maturation (%) (porcine oocytes; Table 2, TCM-199 maturation medium, FGF2 40, LIF 20, IGF-1 20 ng/ml, means ± SEM): 74.8 ± 3.6^b %; Total blastocyst cell number (porcine oocytes; Table 2, day 6 blastocysts, means ± SEM): 34.7 ± 7.8^b
leukemia inhibitory factor [LIF]	–	improved	none of the cytokines improved	Blastocysts/Oocyte (%) (porcine oocytes; [2]): 19.6 ± 3.6^ab %; Blastocysts/Zygote (%) (porcine oocytes; [2]): 25.4 ± 4.0^b %; Nuclear Maturation (%) (porcine oocytes; [3]): 75.7 ± 3.1^a %
